Values of other authors, collected in patent US9623127B2, “Multimodal contrast and radiopharmaceutical agent for an imaging and a targeted therapy guided by imaging” (CENTRE NATIONAL DE LA RECHERCHE SCIENTIFIQUE, priority 2011, dated 2017).

Conditions: 0.6 T, 20° C.

In the case of O=C([O-])CN(CCN(CC(=O)[O-])CC(=O)O)CCN(CC(=O)[O-])CC(=O)O.[Gd+3] [Gd(III)DTPA], the “longitudinal relaxivity r1” value is given as 5.4 mM⁻¹ s⁻¹.
